pIC50: −log10 of the molar value.
How the values were obtained:
Format in all cases: functional, organism-based
Human alphaherpesvirus 3 [1] = assay: In vitro antiviral activity was evaluated against VZV using viral plaque reduction assay; Value ranges from 0.02-0.08
Human alphaherpesvirus 1 [2] = assay: In vitro antiviral activity was evaluated against HSV-1 using viral plaque reduction assay; Value ranges from […]
Human betaherpesvirus 5 [3] = assay: In vitro antiviral activity was evaluated against HCMV using viral plaque reduction assay
Human alphaherpesvirus 2 = assay: In vitro antiviral activity was evaluated against HSV-2 using viral plaque reduction assay
Human alphaherpesvirus 3 [4] = assay: In vitro antiviral activity was evaluated against VZV using viral plaque reduction assay; Value ranges from 2-4
Human alphaherpesvirus 1 [5] = assay: In vitro antiviral activity was evaluated against HSV-1 using viral plaque reduction assay; Value ranges from 0.7-2
Human betaherpesvirus 5 [6] = assay: In vitro antiviral activity was evaluated against HCMV using viral plaque reduction assay; Value ranges from 4-40
Human alphaherpesvirus 3 [7] = assay: In vitro antiviral activity was evaluated against VZV using viral plaque reduction assay
Human alphaherpesvirus 1 [8] = assay: In vitro antiviral activity was evaluated against HSV-1 using viral plaque reduction assay
Human betaherpesvirus 5 [9] = assay: In vitro antiviral activity was evaluated against HCMV using viral plaque reduction assay; Value ranges from 20-40

pIC50 (Human alphaherpesvirus 2)	pIC50 (Human alphaherpesvirus 1 [8])	SMILES	pIC50 (Human betaherpesvirus 5 [3])	pIC50 (Human alphaherpesvirus 2; Human alphaherpesvirus 2)	further results
		Nc1nc(O)c2ncn([C@@H]3C[C@H](CO)C3CO)c2n1 (mixture of isomers)	5.70	7.40	pIC50 (Human alphaherpesvirus 3 [1]): 7.70; pIC50 (Human alphaherpesvirus 1 [2]): 7.40
6.15		Nc1nc(O)c2ncn([C@@H]3C(F)[C@H](CO)C3CO)c2n1 (mixture of isomers; form 1)			pIC50 (Human alphaherpesvirus 3 [4]): 5.70; pIC50 (Human alphaherpesvirus 1 [5]): 6.15; pIC50 (Human betaherpesvirus 5 [6]): 5.40
< 3.60	< 3.60	Nc1nc(O)c2ncn([C@@H]3C(F)[C@H](CO)C3CO)c2n1 (mixture of isomers; form 2)	< 3.60		pIC50 (Human alphaherpesvirus 3 [7]): < 3.60
	6.40	Nc1nc2c(ncn2COCCO)c(=O)[nH]1 [ACYCLOVIR]		6.40	pIC50 (Human betaherpesvirus 5 [9]): 4.70
